Consider one compound from patent US11612573B2, “Topical pharmaceutical compositions” (Dermavant Sciences GmbH, priority 2015, dated 2023).

The nature of data set [1]: 28 day twice daily topical administration, toxicokinetics, dermal irritancy and toxicity. The data set is classed as in vivo, Gottingen minipigs. Particulars: for concentration at 29 day: Skin Concentration. On the procedure: Following dose application on each dosing day, the dose sites were semi-occluded for approximately 20±1 hours from the first dose and then gently washed before the next dose was applied.

The nature of data set [2]: solubility of the active ingredient in solvents. The data set is classed as physicochemical. As to the method:
The solubility of the active ingredient in different solvents was determined. […] The following formulations were prepared with 5%, 10%, 15% and 20% MCT (Formulations 15-18). Two formulations (Formulations 19 and 20) were also prepared where Polawax (a proprietary blend of cetostearyl alcohol and emulsifiers) was replaced with cetostearyl alcohol and additional emulsifier.

The next data set concerns AhR pathway. The note with it: intestinal human colon adenocarcinoma.
For data set [3] the following is noted: Dermal 4% cream, BID, Minipig, 13 weeks.
For data set [4] the following is noted: Gao et al., Journal of Polymer Research 2011; cited from earlier work.
Data set [5] in a line: in vivo. The note with it: minipig, topical or ocular, 4 % cream, BID.
Data set [6] can be described thus: in vivo. Particulars: rat, sc, 3 mg/kg/day.

The structures appear in SMILES notation. Marks after values point to notes of the source that are not given here.

For the compound `CC(C)c1c(O)cc(/C=C/c2ccccc2)cc1O` [3,5-Dihydroxy-4-isopropyl-trans-stilbene], the “survival to scheduled necropsy” value in data set [1] (28 days) was “All animals survived”. The Tmax in data set [1] (both sexes, Gottingen, minipig, in vivo, 60 mg/kg/day) lay in the range of 1 to 3 h. In addition, the NOAEL at 28 days in data set [1] (both sexes, Gottingen, minipig, in vivo, topical or ocular, highest dose tested, 28 days, read-out: NOAEL for dermal irritation or systemic toxicity) stood at 60 mg/kg/day. Moreover, the concentration at 29 day in data set [1] (female, Gottingen, minipig, 10 mg/kg/day, Epidermis/Upper Dermis) was 2540 ng/g; in data set [1] (female, Gottingen, minipig, 20 mg/kg/day, Epidermis/Upper Dermis), 2270 ng/g; in data set [1] (female, Gottingen, minipig, 20 mg/kg/day, Lower Dermis), 305 ng/g; in data set [1] (female, Gottingen, minipig, 60 mg/kg/day, Epidermis/Upper Dermis), 6530 ng/g; in data set [1] (female, Gottingen, minipig, 60 mg/kg/day, Lower Dermis) it was 3040 ng/g; in data set [1] (male, Gottingen, minipig, 10 mg/kg/day, Epidermis/Upper Dermis), 4830 ng/g. Further, the concentration at 29 day amounted to 166 ng/g in data set [1] (male, Gottingen, minipig, 10 mg/kg/day, Lower Dermis); 3950 ng/g in data set [1] (male, Gottingen, minipig, 20 mg/kg/day, Epidermis/Upper Dermis); 615 ng/g in data set [1] (male, Gottingen, minipig, 20 mg/kg/day, Lower Dermis); 10000 ng/g in data set [1] (male, Gottingen, minipig, 60 mg/kg/day, Epidermis/Upper Dermis); 3660 ng/g in data set [1] (male, Gottingen, minipig, 60 mg/kg/day, Lower Dermis). The AUC(0-t) in data set [1] (female, Gottingen, minipig, in vivo, topical or ocular, 60 mg/kg/day) was determined as 0.00484 µg·h/mL. Besides, the “dermal irritation at the dose site” value in data set [1] (minipig, in vivo, 60 mg/kg/day) is recorded as “no test article-related dermal irritation”. Moreover, the “solubility in medium chain triglycerides (MCT)” value in data set [2] is “good solubility”. Moreover, in data set [2], the solubility in water result is “not soluble”. The “activity on the AhR pathway” value with AhR pathway was “activator”. In data set [3], the “Cmax NOAEL” value is listed as 7.13* ng/mL. In data set [4], the “sensitivity to oxidation and photo degradation” value is “sensitive to oxidation and photo degradation”. In “in vivo [5]”, this compound returned an AUC at 13 weeks of 0.099 µg·h/mL. The Cmax was found to be 0.00713 µg/mL in “in vivo [5]” and 0.0316 µg/mL in “in vivo [6]”.
